According to PMC6132687, “Stem cells are the most sensitive screening tool to identify toxicity of GATA4-targeted novel small-molecule compounds” (Archives of Toxicology, 2018):

Columns and labels:
[1] = tested on: primary neonatal rat ventricular cardiomyocytes (NRVCs); test: MTT assay in NRVCs; type: cell-based; conditions: 24 h
Protocol: The cells were exposed to the test compounds for 24 h and cytotoxicity was quantified with MTT and LDH assays as described previously (Talman et al. [2011]). For the determination of cell membrane integrity, 50 µl of medium from each well was transferred onto a new 96-well plate followed by addition of 50 µl of substrate solution containing 1.3 mM β-nicotinamide adenine dinucleotide, 660 µM iodonitrotetrazolium, 54 mM L(+)-lactic acid, 280 µM phenazine methosulphate and 0.2 M Tris–HCl (pH 8.0). After a 30-min incubation, the reaction was stopped by adding 50 µl of 1 M acetic acid to each well and absorbance was measured at 490 nm using Victor2 plate reader (PerkinElmer, Turku, Finland). Spontaneous LDH release was measured from untreated cells, maximal LDH release from cells lysed with 0.9% Triton X-100 and background absorbance was measured from wells without cells. After background extraction, cytotoxicity was calculated as follows: cytotoxicity (%) = [(sample − spontaneous LDH release)/(maximal LDH release − spontaneous LDH release)] × 100. For quantification of metabolic activity, 3-(4,5-dimethylthiazol-2-yl)-2,5-diphenyltetrazolium bromide (MTT) was added to the cells at a final concentration of 0.5 mg/ml followed by 2 h incubation in cell culture conditions. […] Absorbance was measured at 550 nm and absorbance at 650 nm was subtracted as background. […]

[2] = tested on: extracellular signal-regulated kinase 1/2 signalling; parameters: method as in Ferreira et al. [2017]; conditions: systemic administration in heart-targeted nanoparticles; ref Ferreira et al. [2017]; cited from earlier work

| Structure (SMILES) | increase in metabolic activity in NRVCs [1] | pro-hypertrophic ERK1/2 signalling in the hypoxic endocardial layer of the left ventricle [2] |
| --- | --- | --- |
| CCN(CC)c1ccc(NC(=O)c2c(C)noc2-c2cc(C)on2)cc1 [3i-1047] | not observed |  |
| CCN(CC)c1ccc(NC(=O)c2c(-c3ccccc3)noc2C)cc1 [3i-1000] |  | inhibits |
